According to patent publication US9234000B2, “Benzylamine derivatives as inhibitors of plasma kallikrein” (KalVista Pharmaceuticals Limited, priority 2011, dated 2016):
Like-named read-outs stand apart in the source and are kept apart here.

Columns and labels:
[1] = physchem; details: pH 7
Protocol: Determination of the Kinetic Solubility in Phosphate Buffer
After shaking for approximately 30 seconds the reduction in light transmission of these samples, at 650 nm, was measured (Molecular Devices Spectromax UV/visible spectrophotometer). A second measurement was taken at approximately 30 seconds later.

[2] = target: Human plasma kallikrein (Homo sapiens (Human), UniProt P03952); test: Determination of the IC50 for plasma kallikrein; format: biochemical; details: 37° C., read-out: IC50 (human PKal)
In short: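 Human plasma kallikrein incubated at 37° C with fluorogenic substrate H-DPro-Phe-Arg-AFC and varying compound concentrations. Initial reaction rate followed by absorbance change at 410 nm to give residual activity and IC50.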

[3] = target: Human KLK1 (Homo sapiens (Human), UniProt P06870); test: Determination of the IC50 for KLK1; format: biochemical; details: Human KLK1, 37° C., substrate H-DVal-Leu-Arg-AFC
In short: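 Test compound at various concentrations was incubated with human KLK1 and the fluorogenic substrate H-DVal-Leu-Arg-AFC at 37° C. Absorbance change at 410 nm gave the initial reaction rate, from which IC50 was obtained.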

[4] = fluorogenic substrate H-DPro-Phe-Arg-AFC

Chain of Human plasma kallikrein (P03952 391-638): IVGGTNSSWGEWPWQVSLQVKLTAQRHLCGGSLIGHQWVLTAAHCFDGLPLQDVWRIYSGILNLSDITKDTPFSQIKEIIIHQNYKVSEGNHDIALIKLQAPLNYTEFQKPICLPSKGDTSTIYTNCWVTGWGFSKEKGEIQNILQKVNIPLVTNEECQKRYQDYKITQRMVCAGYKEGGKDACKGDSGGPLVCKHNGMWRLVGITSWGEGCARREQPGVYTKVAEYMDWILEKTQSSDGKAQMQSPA
Chain of Human plasma kallikrein (P03952 20-390 partner): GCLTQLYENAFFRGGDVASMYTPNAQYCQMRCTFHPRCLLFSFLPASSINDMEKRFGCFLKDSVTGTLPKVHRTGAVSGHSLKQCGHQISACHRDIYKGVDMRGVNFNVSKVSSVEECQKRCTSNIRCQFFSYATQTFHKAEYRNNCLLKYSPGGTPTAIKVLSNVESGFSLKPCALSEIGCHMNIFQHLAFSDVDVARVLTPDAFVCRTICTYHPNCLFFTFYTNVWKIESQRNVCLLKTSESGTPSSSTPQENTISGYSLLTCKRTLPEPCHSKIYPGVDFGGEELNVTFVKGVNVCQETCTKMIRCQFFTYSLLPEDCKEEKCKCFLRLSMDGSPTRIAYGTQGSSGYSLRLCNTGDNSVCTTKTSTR
Chain of Human KLK1 (P06870 25-262): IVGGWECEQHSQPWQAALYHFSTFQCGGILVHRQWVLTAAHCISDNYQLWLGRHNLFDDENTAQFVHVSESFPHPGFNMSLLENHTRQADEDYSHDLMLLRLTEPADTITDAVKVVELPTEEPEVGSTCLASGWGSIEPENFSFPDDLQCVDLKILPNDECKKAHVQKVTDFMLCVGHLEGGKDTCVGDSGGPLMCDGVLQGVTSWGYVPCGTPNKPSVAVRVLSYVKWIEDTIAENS

Row | solubility in PO4 buffer [1] | IC50 [2, 4] | IC50 ([3]; Table 13) | IC50 ([2]; substrate H-DPro-Phe-Arg-AFC) | IC50 ([3]; Table 12) | Compound
1 | > 235 µM | 290 nM | – | – | – | CCOc1ccc(C[C@@H](NC(=O)CC)C(=O)N[C@@H](Cc2ccccc2)C(=O)NCc2ccc(CN)cc2Cl)cc1 [Example 12, (S)-N-(4-Aminomethyl-2-chloro-benzyl)-2-[(R)-3-(4-ethoxy-phenyl)-2-propionylamino-propionylamino]-3-phenyl-propionamide]
2 | > 235 µM | 7200 nM | – | – | – | CCC(=O)N[C@H](CC1CCCCC1)C(=O)N[C@@H](Cc1ccccc1)C(=O)NCc1ccc(CN)cc1 [Example 10, (S)-N-(4-Aminomethyl-benzyl)-2-((R)-3-cyclohexyl-2-propionylamino-propionylamino)-3-phenyl-propionamide]
3 | > 235 µM | – | – | – | – | NCc1ccc(CNC(=O)[C@H](Cc2ccccc2)NC(=O)[C@H](N)CC2CCCCC2)cc1 [Example 8, (R)-2-Amino-N-[(S)-1-(4-aminomethyl-benzylcarbamoyl)-2-phenyl-ethyl]-3-cyclohexyl-propionamide]
4 | > 235 µM | 820 nM | – | – | – | CCOc1ccc(C[C@@H](NS(C)(=O)=O)C(=O)N[C@@H](Cc2ccccc2)C(=O)NCc2ccc(CN)cc2)cc1 [Example 2, (R)—N—[(S)-1-(4-Aminomethyl-benzylcarbamoyl)-2-phenyl-ethyl]-3-(4-ethoxy-phenyl)-2-methanesulfonylamino-propionamide]
5 | – | – | > 10000 nM | 861 nM | – | CCOc1ccc(C[C@@H](NC(=O)NCc2ccccc2)C(=O)N[C@@H](Cc2ccccc2)C(=O)NCc2ccc(CN)cc2)cc1 [Example 68, (R)-N-[(S)-1-(4-Aminomethyl-benzylcarbamoyl)-2-phenyl-ethyl]-2-(3-benzyl-ureido)-3-(4-ethoxy-phenyl)-propionamide]
6 | – | – | > 10000 nM | 457 nM | – | CCOc1ccc(C[C@@H](NC(=O)c2ccccc2)C(=O)N[C@@H](Cc2c[nH]cn2)C(=O)NCc2ccc(CN)cc2)cc1 [Example 177, N-[(R)-1-[(S)-1-(4-Aminomethyl-benzylcarbamoyl)-2-(1H-imidazol-4-yl)-ethylcarbamoyl]-2-(4-ethoxy-phenyl)-ethyl]-benzamide]
7 | – | – | > 10000 nM | 91 nM | – | CCOc1ccc(C[C@@H](NC(=O)c2ccccc2)C(=O)N[C@@H](Cc2cccc(F)c2)C(=O)NCc2ccc(CN)cc2)cc1 [Example 149, N-[(R)-1-[(S)-1-(4-Aminomethyl-benzylcarbamoyl)-2-(3-fluoro-phenyl)-ethylcarbamoyl]-2-(4-ethoxy-phenyl)-ethyl]-benzamide]
8 | – | – | > 10000 nM | 423 nM | – | CCOc1ccc(C[C@@H](NC(=O)CCc2ccccc2)C(=O)N[C@@H](Cc2ccccc2)C(=O)NCc2ccc(CN)cc2)cc1 [Example 86, (S)-N-(4-Aminomethyl-benzyl)-2-[(R)-3-(4-ethoxy-phenyl)-2-(3-phenyl-propionylamino)-propionylamino]-3-phenyl-propionamide]
9 | – | – | > 10000 nM | 50 nM | – | CCOc1ccc(C[C@@H](NC(=O)c2ccc(C)cc2)C(=O)N[C@@H](Cc2ccccn2)C(=O)NCc2ccc(CN)cc2)cc1 [Example 164, N-[(R)-1-[(S)-1-(4-Aminomethyl-benzylcarbamoyl)-2-pyridin-2-yl-ethylcarbamoyl]-2-(4-ethoxy-phenyl)-ethyl]-4-methyl-benzamide]
10 | – | – | > 10000 nM | 1110 nM | – | CCOc1ccc(C[C@@H](NC(=O)CNS(=O)(=O)c2ccc(C)cc2)C(=O)N[C@@H](Cc2ccccc2)C(=O)NCc2ccc(CN)cc2)cc1 [Example 101, (S)-N-(4-Aminomethyl-benzyl)-2-{(R)-3-(4-ethoxy-phenyl)-2-[2-(toluene-4-sulfonylamino)-acetylamino]-propionylamino}-3-phenyl-propionamide]
11 | – | 10000 nM | – | – | 9600 nM | C[C@@H](NC(=O)c1ccccc1)C(=O)N[C@@H](Cc1ccccc1)C(=O)NCc1ccc(CN)cc1 [Example 22, N-{(R)-1-[(S)-1-(4-Aminomethyl-benzylcarbamoyl)-2-phenyl-ethylcarbamoyl]-ethyl}-benzamide]
12 | – | – | > 10000 nM | 61 nM | – | CCOc1ccc(C[C@@H](NC(=O)c2ccco2)C(=O)N[C@@H](Cc2ccccc2)C(=O)NCc2ccc(CN)cc2)cc1 [Example 118, Furan-2-carboxylic acid [(R)-1-[(S)-1-(4-aminomethyl-benzylcarbamoyl)-2-phenyl-ethylcarbamoyl]-2-(4-ethoxy-phenyl)-ethyl]-amide]
13 | – | – | > 10000 nM | 254 nM | – | CCOc1ccc(C[C@@H](NC(=O)c2cc3ccccc3s2)C(=O)N[C@@H](Cc2ccccc2)C(=O)NCc2ccc(CN)cc2)cc1 [Example 83, Benzo[b]thiophene-2-carboxylic acid[(R)-1-[(S)-1-(4-aminomethyl-benzylcarbamoyl)-2-phenyl-ethylcarbamoyl]-2-(4-ethoxy-phenyl)-ethyl]-amide]
14 | – | – | > 10000 nM | 262 nM | – | CCOc1ccc(C[C@@H](NC(=O)CC)C(=O)N[C@@H](Cc2ccccn2)C(=O)NCc2ccc(CN)cc2)cc1 [Example 166, (R)-N-[(S)-1-(4-Aminomethyl-benzylcarbamoyl)-2-pyridin-2-yl-ethyl]-3-(4-ethoxy-phenyl)-2-propionylamino-propionamide]
15 | – | – | > 10000 nM | 424 nM | – | Cc1ccc(C[C@@H](NC(=O)c2ccccc2)C(=O)N[C@@H](Cc2ccccc2)C(=O)NCc2ccc(CN)cc2)cc1 [Example 135, N-{(R)-1-[(S)-1-(4-Aminomethyl-benzylcarbamoyl)-2-phenyl-ethylcarbamoyl]-2-p-tolyl-ethyl}-benzamide]
16 | – | – | > 10000 nM | 1960 nM | – | CCOc1ccc(C[C@@H](NC(=O)NC(C)C)C(=O)N[C@@H](Cc2ccccc2)C(=O)NCc2ccc(CN)cc2)cc1 [Example 77, (R)-N-[(S)-1-(4-Aminomethyl-benzylcarbamoyl)-2-phenyl-ethyl]-3-(4-ethoxy-phenyl)-2-(3-isopropyl-ureido)-propionamide]
17 | – | – | > 10000 nM | 51 nM | – | CCOc1ccc(C[C@@H](NC(=O)CC)C(=O)N[C@@H](Cc2cccnc2)C(=O)NCc2ccc(CN)cc2)cc1 [Example 170, (R)-N-[(S)-1-(4-Aminomethyl-benzylcarbamoyl)-2-pyridin-3-yl-ethyl]-3-(4-ethoxy-phenyl)-2-propionylamino-propionamide]
18 | – | – | 4800 nM | 519 nM | – | CCOc1ccc(C[C@@H](NC(=O)c2sccc2OC)C(=O)N[C@@H](Cc2ccccc2)C(=O)NCc2ccc(CN)cc2)cc1 [Example 122, 3-Methoxy-thiophene-2-carboxylic acid [(R)-1-[(S)-1-(4-aminomethyl-benzylcarbamoyl)-2-phenyl-ethylcarbamoyl]-2-(4-ethoxy-phenyl)-ethyl]-amide]
19 | – | 53 nM | – | – | 4900 nM | CCOc1ccc(C[C@@H](NC(=O)CC)C(=O)N[C@@H](Cc2ccc(Cl)c(Cl)c2)C(=O)NCc2ccc(CN)cc2)cc1 [Example 16, (S)-N-(4-Aminomethyl-benzyl)-3-(3,4-dichloro-phenyl)-2-[(R)-3-(4-ethoxy-phenyl)-2-propionylamino-propionylamino]-propionamide]
20 | – | – | 9000 nM | 10000 nM | – | CCOc1ccc(C[C@@H](NC(=O)Nc2ccc(Cl)cc2)C(=O)N[C@@H](Cc2ccccc2)C(=O)NCc2ccc(CN)cc2)cc1 [Example 102, (R)-N-[(S)-1-(4-Aminomethyl-benzylcarbamoyl)-2-phenyl-ethyl]-2-[3-(4-chloro-phenyl)-ureido]-3-(4-ethoxy-phenyl)-propionamide]
21 | – | – | > 10000 nM | 276 nM | – | CCOc1ccc(C[C@@H](NC(=O)c2cccc(C(F)(F)F)c2)C(=O)N[C@@H](Cc2ccccc2)C(=O)NCc2ccc(CN)cc2)cc1 [Example 90, N-[(R)-1-[(S)-1-(4-Aminomethyl-benzylcarbamoyl)-2-phenyl-ethylcarbamoyl]-2-(4-ethoxy-phenyl)-ethyl]-3-trifluoromethyl-benzamide]
22 | – | – | 6100 nM | 48 nM | – | CCOc1ccc(C[C@@H](NC(=O)c2scnc2C)C(=O)N[C@@H](Cc2ccccc2)C(=O)NCc2ccc(CN)cc2)cc1 [Example 117, 4-Methyl-thiazole-5-carboxylic acid[(R)-1-[(S)-1-(4-aminomethyl-benzylcarbamoyl)-2-phenyl-ethylcarbamoyl]-2-(4-ethoxy-phenyl)-ethyl]-amide]
23 | – | – | 9000 nM | 417 nM | – | CCOc1ccc(C[C@@H](NC(=O)c2cnc3cc(Cl)ccc3c2)C(=O)N[C@@H](Cc2ccccc2)C(=O)NCc2ccc(CN)cc2)cc1 [Example 115, 7-Chloro-quinoline-3-carboxylic acid [(R)-1-[(S)-1-(4-aminomethyl-benzylcarbamoyl)-2-phenyl-ethylcarbamoyl]-2-(4-ethoxy-phenyl)-ethyl]-amide]
24 | – | – | > 10000 nM | 539 nM | – | CCOc1ccc(C[C@@H](NC(=O)c2cc(C)nn2C)C(=O)N[C@@H](Cc2ccccc2)C(=O)NCc2ccc(CN)cc2)cc1 [Example 82, 2,5-Dimethyl-2H-pyrazole-3-carboxylic acid [(R)-1-[(S)-1-(4-aminomethyl-benzylcarbamoyl)-2-phenyl-ethylcarbamoyl]-2-(4-ethoxy-phenyl)-ethyl]-amide]
25 | – | – | > 10000 nM | 398 nM | – | CCOc1ccc(C[C@@H](NC(=O)c2ccc(OC(F)(F)F)cc2)C(=O)N[C@@H](Cc2ccccc2)C(=O)NCc2ccc(CN)cc2)cc1 [Example 80, N-[(R)-1-[(S)-1-(4-Aminomethyl-benzylcarbamoyl)-2-phenyl-ethylcarbamoyl]-2-(4-ethoxy-phenyl)-ethyl]-4-trifluoromethoxy-benzamide]
